Test results published in patent EP0238178B1, “Novel derivatives of erythromycylamine” (ELI LILLY AND COMPANY, priority 1986, dated 1987).
Converted amounts (≈) assume the structure as drawn. Like-named read-outs stand apart in the source and are kept apart here.

Key:
[1] = tested on: Staphylococcus aureus X1.1; experiment: MIC, standard agar-dilution assay; format: cell-based; conditions: read-out: MIC
[2] = tested on: Staphylococcus aureus S13E; experiment: MIC, standard agar-dilution assay; format: cell-based
[3] = tested on: Staphylococcus epidermidis 222; experiment: MIC, standard agar-dilution assay; format: cell-based; conditions: read-out: MIC
[4] = tested on: Streptococcus pyogenes C203; experiment: MIC, standard agar-dilution assay; format: cell-based; conditions: read-out: MIC
[5] = tested on: Streptococcus pneumoniae Park I; experiment: MIC, standard agar-dilution assay; format: cell-based; conditions: read-out: MIC
[6] = tested on: Streptococcus sp. group D X66; experiment: MIC, standard agar-dilution assay; format: cell-based; conditions: Streptococcus sp. group D X66; read-out: MIC
[7] = tested on: Streptococcus sp. group D 2041; experiment: MIC, standard agar-dilution assay; format: cell-based; conditions: read-out: MIC
[8] = tested on: Haemophilus influenzae C.L.; experiment: MIC, standard agar-dilution assay; format: cell-based; conditions: Ampicillin-sensitive strain, read-out: MIC
[9] = tested on: Haemophilus influenzae 76; experiment: MIC, standard agar-dilution assay; format: cell-based; conditions: Haemophilus influenzae 76, Ampicillin-resistant strain; read-out: MIC
Escherichia coli EC14 = experiment: MIC, standard agar-dilution assay; format: cell-based; conditions: read-out: MIC
[10] = tested on: Klebsiella pneumoniae X68; experiment: MIC, standard agar-dilution assay; format: cell-based; conditions: read-out: MIC
Staphylococcus aureus = experiment: Experimental bacterial infection in mice, ED50; format: in vivo; conditions: two doses, dose protecting 50% of animals; for ED50: Staphylococcus aureus
Procedure: (§1) The new derivatives of this invention have also shown in vivo antimicrobial activity against experimental bacterial infections. When two doses of test compound were administered to mice in experimental infections, the activity observed was measured as an EDso value [effective dose in mg/kg to protect 50% of the test animals: see Warren Wick, et al., J. Bacteriol. 81, 233-235 (1961)].

Streptococcus pneumoniae = experiment: Experimental bacterial infection in mice, ED50; format: in vivo; conditions: two doses, dose protecting 50% of animals; for ED50: Streptococcus pneumoniae
Procedure: as §1

Streptococcus pyogenes = experiment: Experimental bacterial infection in mice, ED50; format: in vivo; conditions: two doses, dose protecting 50% of animals; for ED50: Streptococcus pyogenes
Procedure: as §1

[11] = tested on: Staphylococcus aureus V41; experiment: MIC, standard agar-dilution assay; format: cell-based; conditions: Staphylococcus aureus V41, Penicillin-resistant strain, inducibly-resistant to erythromycin; read-out: MIC
Text: (§2) In addition to excellent in vitro activity against erythromycin-sensitive bacteria, several members of this new series have shown in vitro activity against erythromycin-resistant strains. These include strains which are inducibly-resistant to erythromycin (S.. aureus V41 and X400 and S. epidermidis EPI1) and even strains which are constitutively-resistant (S. epidermidis 270).

[12] = tested on: Staphylococcus aureus X400; experiment: MIC, standard agar-dilution assay; format: cell-based; conditions: Staphylococcus aureus X400, Methicillin-resistant strain, inducibly-resistant to erythromycin; read-out: MIC
Text: as §2

[13] = sc, subcutaneous, read-out: Subcutaneous ED50

SMILES | MIC [1] [µg/mL] | MIC [2] [µg/mL] | MIC [3] [µg/mL] | MIC [4] [µg/mL] | MIC [5] [µg/mL] | MIC [6] [µg/mL] | MIC [7] [µg/mL] | MIC [8] [µg/mL] | MIC [9] [µg/mL] | MIC (Escherichia coli EC14) [µg/mL] | MIC [10] [µg/mL] | ED50 (Staphylococcus aureus; po, read-out: Oral ED50) [mg/kg] | ED50 (Streptococcus pneumoniae; po, read-out: Oral ED50) [mg/kg] | ED50 (Streptococcus pyogenes; po, read-out: Oral ED50) [mg/kg] | MIC [11] [µg/mL] | MIC [12] [µg/mL] | other results
CCN[C@@H]1[C@H](C)[C@@H](O)[C@](C)(O)[C@@H](CC)OC(=O)[C@H](C)[C@@H](O[C@H]2C[C@@](C)(OC)[C@@H](O)[C@H](C)O2)[C@H](C)[C@@H](O[C@@H]2O[C@H](C)C[C@H](N(C)C)[C@H]2O)[C@](C)(O)C[C@H]1C [Compound 2, (9S)-9-Deoxo-9-(ethylamino)erythromycin] | 1 (≈ 1.31 µM) | 2 (≈ 2.62 µM) | 1 (≈ 1.31 µM) | 0.125 (≈ 0.164 µM) | 0.03 (≈ 0.0393 µM) | 0.25 (≈ 0.328 µM) | 4 (≈ 5.24 µM) | 1 (≈ 1.31 µM) | 4 (≈ 5.24 µM) | 32 (≈ 41.9 µM) | 64 (≈ 83.9 µM) | 23.4 | 13.4 | 12.5 |  |  | 
CCCN[C@@H]1[C@H](C)[C@@H](O)[C@](C)(O)[C@@H](CC)OC(=O)[C@H](C)[C@@H](O[C@H]2C[C@@](C)(OC)[C@@H](O)[C@H](C)O2)[C@H](C)[C@@H](O[C@@H]2O[C@H](C)C[C@H](N(C)C)[C@H]2O)[C@](C)(O)C[C@H]1C [Compound 3, 9-Deoxo-9-(n-propylamino)erythromycin] | 1 (≈ 1.29 µM) | 0.25 (≈ 0.322 µM) | 0.5 (≈ 0.643 µM) | 0.03 (≈ 0.0386 µM) | 0.015 (≈ 0.0193 µM) | 0.125 (≈ 0.161 µM) | 4 (≈ 5.15 µM) | 1 (≈ 1.29 µM) | 2 (≈ 2.57 µM) | 32 (≈ 41.2 µM) | 128 (≈ 165 µM) | 11.8 | 7.2 | 3.3 |  |  | ED50 (Staphylococcus aureus; [13]): 6.11 mg/kg; Oral ED50 (Staphylococcus aureus; oral): 12.6 mg/kg; ED50 (Streptococcus pneumoniae; [13]): 1.77 mg/kg; Oral ED50 (Streptococcus pneumoniae): 6.3 mg/kg; ED50 (Streptococcus pyogenes; [13]): 1.67 mg/kg; Oral ED50 (Streptococcus pyogenes): 6.1 mg/kg
CCCCN[C@@H]1[C@H](C)[C@@H](O)[C@](C)(O)[C@@H](CC)OC(=O)[C@H](C)[C@@H](O[C@H]2C[C@@](C)(OC)[C@@H](O)[C@H](C)O2)[C@H](C)[C@@H](O[C@@H]2O[C@H](C)C[C@H](N(C)C)[C@H]2O)[C@](C)(O)C[C@H]1C [Compound 4, 9-Deoxo-9-(n-butylamino)erythromycin] | 0.25 (≈ 0.316 µM) | 1 (≈ 1.26 µM) | 0.25 (≈ 0.316 µM) | 0.06 (≈ 0.0758 µM) | 0.015 (≈ 0.019 µM) | 0.125 (≈ 0.158 µM) | 1 (≈ 1.26 µM) | 1 (≈ 1.26 µM) | 1 (≈ 1.26 µM) | 64 (≈ 80.9 µM) | 128 (≈ 162 µM) | 14.7 | 12.5 | 12.5 |  |  | 
CCCCCN[C@@H]1[C@H](C)[C@@H](O)[C@](C)(O)[C@@H](CC)OC(=O)[C@H](C)[C@@H](O[C@H]2C[C@@](C)(OC)[C@@H](O)[C@H](C)O2)[C@H](C)[C@@H](O[C@@H]2O[C@H](C)C[C@H](N(C)C)[C@H]2O)[C@](C)(O)C[C@H]1C [Compound 5, 9-Deoxo-9-(n-pentylamino)erythromycin] | 0.5 (≈ 0.621 µM) | 1 (≈ 1.24 µM) | 0.5 (≈ 0.621 µM) | 0.06 (≈ 0.0745 µM) | 0.015 (≈ 0.0186 µM) | 0.125 (≈ 0.155 µM) | 2 (≈ 2.48 µM) | 1 (≈ 1.24 µM) | 2 (≈ 2.48 µM) | 128 (≈ 159 µM) | 128 (≈ 159 µM) | 25 | 13.6 | 8.8 |  |  | 
CCCCCCCCN[C@@H]1[C@H](C)[C@@H](O)[C@](C)(O)[C@@H](CC)OC(=O)[C@H](C)[C@@H](O[C@H]2C[C@@](C)(OC)[C@@H](O)[C@H](C)O2)[C@H](C)[C@@H](O[C@@H]2O[C@H](C)C[C@H](N(C)C)[C@H]2O)[C@](C)(O)C[C@H]1C [Compound 8, 9-Deoxo-9-(n-octylamino)erythromcin] | 0.5 (≈ 0.59 µM) | 0.25 (≈ 0.295 µM) | 0.25 (≈ 0.295 µM) | 0.015 (≈ 0.0177 µM) | 0.015 (≈ 0.0177 µM) | 0.06 (≈ 0.0708 µM) | 1 (≈ 1.18 µM) | 1 (≈ 1.18 µM) | 1 (≈ 1.18 µM) |  |  | > 50 | 46.1 | 23.4 | 8 (≈ 9.44 µM) | 8 (≈ 9.44 µM) | Oral ED50 (Streptococcus pneumoniae): > 50 mg/kg; Oral ED50 (Streptococcus pyogenes): 38.3 mg/kg
CCCCCCCCCCN[C@@H]1[C@H](C)[C@@H](O)[C@](C)(O)[C@@H](CC)OC(=O)[C@H](C)[C@@H](O[C@H]2C[C@@](C)(OC)[C@@H](O)[C@H](C)O2)[C@H](C)[C@@H](O[C@@H]2O[C@H](C)C[C@H](N(C)C)[C@H]2O)[C@](C)(O)C[C@H]1C [Compound 9, 9-Deoxo-9-(n-decylamino)erythromycin] | 1 (≈ 1.14 µM) | 0.5 (≈ 0.571 µM) | 1 (≈ 1.14 µM) | 0.015 (≈ 0.0171 µM) | 0.015 (≈ 0.0171 µM) | 0.25 (≈ 0.286 µM) | 2 (≈ 2.29 µM) | 2 (≈ 2.29 µM) | 1 (≈ 1.14 µM) |  |  | > 50 | > 50 | > 50 | 4 (≈ 4.57 µM) | 8 (≈ 9.14 µM) | 
CCCCCCCCCCCCN[C@@H]1[C@H](C)[C@@H](O)[C@](C)(O)[C@@H](CC)OC(=O)[C@H](C)[C@@H](O[C@H]2C[C@@](C)(OC)[C@@H](O)[C@H](C)O2)[C@H](C)[C@@H](O[C@@H]2O[C@H](C)C[C@H](N(C)C)[C@H]2O)[C@](C)(O)C[C@H]1C [Compound 10, 9-Deoxo-9-(n-dodecylamino)erythromycin] | 4 (≈ 4.43 µM) | 2 (≈ 2.21 µM) | 4 (≈ 4.43 µM) | 0.5 (≈ 0.554 µM) | 0.06 (≈ 0.0664 µM) | 1 (≈ 1.11 µM) | 8 (≈ 8.86 µM) | 8 (≈ 8.86 µM) | 4 (≈ 4.43 µM) |  |  | > 45 | > 50 | > 50 | 8 (≈ 8.86 µM) | 8 (≈ 8.86 µM) | 
CC[C@H]1OC(=O)[C@H](C)[C@@H](O[C@H]2C[C@@](C)(OC)[C@@H](O)[C@H](C)O2)[C@H](C)[C@@H](O[C@@H]2O[C@H](C)C[C@H](N(C)C)[C@H]2O)[C@](C)(O)C[C@@H](C)[C@H](NCCC(C)C)[C@H](C)[C@@H](O)[C@]1(C)O [Compound 11, 9-Deoxo-9-[(3-methylbutyl)amino]erythromycin] | 1 (≈ 1.24 µM) | 0.5 (≈ 0.621 µM) | 0.25 (≈ 0.311 µM) | 0.06 (≈ 0.0745 µM) | 0.03 (≈ 0.0373 µM) | 0.125 (≈ 0.155 µM) | 1 (≈ 1.24 µM) | 1 (≈ 1.24 µM) | 1 (≈ 1.24 µM) | 128 (≈ 159 µM) | 128 (≈ 159 µM) | 12.5 | 10.8 | 8.8 |  |  | 
CC[C@H]1OC(=O)[C@H](C)[C@@H](O[C@H]2C[C@@](C)(OC)[C@@H](O)[C@H](C)O2)[C@H](C)[C@@H](O[C@@H]2O[C@H](C)C[C@H](N(C)C)[C@H]2O)[C@](C)(O)C[C@@H](C)[C@H](NCC2CCCCCCC2)[C@H](C)[C@@H](O)[C@]1(C)O [Compound 16, 9-Deoxo-9-[(cyclooctylmethyl)amino]erythromycin] | 0.5 (≈ 0.582 µM) | 0.06 (≈ 0.0698 µM) | 0.25 (≈ 0.291 µM) | < 0.008 |  | < 0.008 | 1 (≈ 1.16 µM) | 1 (≈ 1.16 µM) | 1 (≈ 1.16 µM) | 64 (≈ 74.5 µM) |  |  |  |  | 64 (≈ 74.5 µM) | 64 (≈ 74.5 µM) | 
CC[C@H]1OC(=O)[C@H](C)[C@@H](O[C@H]2C[C@@](C)(OC)[C@@H](O)[C@H](C)O2)[C@H](C)[C@@H](O[C@@H]2O[C@H](C)C[C@H](N(C)C)[C@H]2O)[C@](C)(O)C[C@@H](C)[C@H](NCC(C)(C)CO)[C@H](C)[C@@H](O)[C@]1(C)O [Compound 22, 9-Deoxo-9-[(3-hydroxy-2,2-dimethylpropyl)amino]erythromycin] | 1 (≈ 1.22 µM) | 1 (≈ 1.22 µM) | 1 (≈ 1.22 µM) | 0.03 (≈ 0.0365 µM) | 0.015 (≈ 0.0183 µM) | 0.25 (≈ 0.304 µM) | 4 (≈ 4.87 µM) | 1 (≈ 1.22 µM) | 0.25 (≈ 0.304 µM) | 32 (≈ 39 µM) | 64 (≈ 77.9 µM) | > 50 | 46.1 | 19.8 |  |  | 
CC[C@H]1OC(=O)[C@H](C)[C@@H](O[C@H]2C[C@@](C)(OC)[C@@H](O)[C@H](C)O2)[C@H](C)[C@@H](O[C@@H]2O[C@H](C)C[C@H](N(C)C)[C@H]2O)[C@](C)(O)C[C@@H](C)[C@H](NCCOCCOC)[C@H](C)[C@@H](O)[C@]1(C)O [Compound 25, 9-Deoxo-9-[[2-(2-methoxyethoxy)ethyl]amino]erythromycin] | 1 (≈ 1.19 µM) | 8 (≈ 9.56 µM) | 1 (≈ 1.19 µM) | 0.125 (≈ 0.149 µM) | 0.015 (≈ 0.0179 µM) | 0.25 (≈ 0.299 µM) | 8 (≈ 9.56 µM) | 2 (≈ 2.39 µM) | 4 (≈ 4.78 µM) | 64 (≈ 76.5 µM) | 128 (≈ 153 µM) | 23.3 | 21.8 | 27.1 |  |  | 
